{
  "source": "patent US9486405B2",
  "about": "“Methods for the treatment of pediatric otic disorders” (Otonomy, Inc., priority 2013, dated 2016)",
  "key": {"[1]": {"assay": "Middle ear histology, one-month acute ototoxicity study", "assay_type": "in vivo, guinea pig", "settings": "at termination; Composition A 2% and 6% single IT-ANT; drops twice daily for 7 days; gentamicin single IT-ANT", "method": "(§1) At termination, functional and anatomic assessments of the middle and inner ear compartments were conducted.\nHistological analysis of middle ear paraffin sections was conducted at termination.\nMiddle ear histology—Guinea pigs received vascular perfusion through the heart with an isotonic saline solution followed by fixative containing 4% paraformaldehyde (PFA) in phosphate buffer. Left and right temporal bones were removed and trimmed. Left ear cochleae were designated for inner ear assessment and the right ear cochleae for middle ear histology. Cochleae of the left ear were fixed by intrascalar perfusion of 4% PFA. The temporal bones were then placed in 4% PFA for approximately 1 hour and transferred to a vial containing 0.5% PFA in phosphate buffer. The right temporal bones were trimmed, and then each was placed in a cassette containing 5% EDTA in phosphate buffer. The cassettes were placed into a PELCO 3451 Microwave System, running constantly for 3-5 days. Ears were then dehydrated in EtOH and processed in JB-4 Glycol Methacrylate resin, placed into molds containing the resin and polymerized at ˜4° C. for ˜12 h. Blocks containing temporal bones were trimmed and 5 μm sections were cut with a Leica RM2165 Microtome and stained with Paragon stain. Sections were examined under bright field optics. Middle ear sections were assessed for tissue reaction and inflammatory response. […]"}, "[2]": {"tested_on": "inner and outer hair cells", "assay": "Inner ear cytocochleogram, one-month acute ototoxicity study", "assay_type": "in vivo, guinea pig", "settings": "at termination; 2% and 6% single IT-ANT; drops twice daily for 7 days; gentamicin single IT-ANT", "method": "as §1\nInner ear cytocochleogram—The left ear cochleae were carefully removed from the temporal bones and then further dissected, first removing the bony otic capsule, followed by removal of lateral wall tissues, including spiral ligament and stria vascularis. The tectorial membrane was then removed and the cochleae placed in a solution of rhodamine labeled phalloidin, diluted 1:100 in phosphate buffered saline (PBS), for 30-120 min, in the dark, followed by two washes in PBS. The cochlear sensory neural epithelium was then dissected away from the modiolus, starting at the apex, to produce surface preparations of the cochlear spiral. Each segment was mapped for location and placed on a slide. A quantitative assessment of presence or absence of hair cells was then carried out, beginning at apex and proceeding to the base, to produce a cytocochleogram, with presence or absence or hair cells mapped by position along the cochlear spiral."}},
  "data": [
    {"substance": "gentamicin", "values": [
      {"measurement": "middle ear histology finding", "setting": "[1]", "result": "moderate chronic inflammation"},
      {"measurement": "hair cell loss (cytocochleogram)", "setting": "[2]", "result": "profound to complete hair cell loss"}
    ]}
  ]
}
